Experimental data reported in patent US20240279176A1, “SUBSTITUTED TRICYCLIC HETEROCYCLIC COMPOUNDS AS METALLO-BETA-LACTAMASE INHIBITORS” (priority 2021, published 2024).
Read-outs that look alike come from different tables or passages of the source.

Assays:
[1] = system: Klebsiella pneumoniae ATCC BAA-2146; experiment: Minimum inhibitory concentration (MIC), broth-microdilution (CLSI); assay type: cell-based; settings: ATCCBAA2146, compound alone, K. pneumoniae ATCC BAA-2146, read-out: Intrinsic MIC
Text: (§1) The strain included in the study was Klebsiella pneumoniae ATCC BAA-2146 (Himedia®, India) with presence of New Delhi metallo-β-lactamase (NDM-1) gene. The quality control reference strains Escherichia coli ATCC 25922 and Pseudomonas aeruginosa ATCC 27853 were procured from Himedia®, India.
MIC values were identified through broth-microdilution in sterilized 96-well polystyrene flat-bottom microtitre plates (Cole-Parmer®) according to the guideline of the Clinical and Laboratory Standards Institute (CLSI) (CLSI; Methods for dilution antimicrobial susceptibility tests for bacteria that grow aerobically; Clinical Laboratory Standards Institute, M07-A09, 2012). This method involves the use of BBL™ Cation-adjusted Mueller-Hinton II Broth (CA-MHB; BD) and the strain (Klebsiella pneumoniae ATCC BAA-2146) concentration was adjusted to 5×10^5 CFU/mL. After 16-18 h of incubation at various concentrations of Imipenem, Meropenem (Alfa Aesar), or test compounds at 37° C., MIC was defined as the lowest concentration of antibiotic or test compound with no visible growth.

IMP-1 = IMP-1 (Serratia marcescens, UniProt P52699); experiment: Enzyme activity: IC50 in fluorescence assay with cephalosporin substrate FC5; assay type: biochemical; settings: 100 pM IMP-1, 10 μM FC5, 10 min pre-incubation
Sequence of IMP-1 (P52699 19-246, looked up, species assumed): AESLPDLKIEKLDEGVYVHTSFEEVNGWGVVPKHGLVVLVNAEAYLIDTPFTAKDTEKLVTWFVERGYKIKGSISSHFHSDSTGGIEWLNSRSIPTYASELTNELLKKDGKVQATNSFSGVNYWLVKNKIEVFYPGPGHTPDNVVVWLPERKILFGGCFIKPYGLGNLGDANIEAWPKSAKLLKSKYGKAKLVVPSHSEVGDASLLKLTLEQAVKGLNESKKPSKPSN
Description: (§2) The Class B beta-lactamases activities were measured in the presence of the test inhibitors in a fluorescence assay against an in-house synthesized fluorescent cephalosporin substrate FC5 (Berkel, et. al. J. Med. Chem. 2013, 56(17), 6945). The enzymes (NDM-1, IMP-1) and the substrate were diluted in 20 mM HEPES, pH 7.4, supplemented with 300 mM NaCl and 10 μM ZnSO4. In the assay, the final concentration of enzyme was 50 pM, and 100 pM for NDM-1, and IMP-1 respectively, and the final concentration of FC5 was 1.5 μM for NDM-1 and 10 μM for IMP-1. The test inhibitors/compounds were dissolved in dimethylsulfoxide (DMSO) and diluted in the assay with assay buffer (20 mM HEPES, pH 7.4, supplemented with 5% DMSO, 300 mM NaCl and 10 μM ZnSO4), resulting in a final concentration range of 0.008 μM to 25 μM. The assays were performed in 96-well microplate (flat bottom, black). The test inhibitors were incubated with the MBL enzyme for 10 min at room temperature, followed by addition the substrate and the fluorescence was recorded immediately (λex 380 nm, λem 460 nm) on a microplate reader. Using the initial velocity data plotted against the inhibitor concentration, the half-maximal inhibitory concentrations were calculated by an IC50 curve-fitting model in GraphPad Prism 9 software.

NDM-1 = NDM-1 (Klebsiella pneumoniae, UniProt C7C422); experiment: as above; assay type: biochemical; settings: 50 pM NDM-1, 1.5 μM FC5, 10 min pre-incubation
Sequence of NDM-1 (C7C422 29-270, looked up): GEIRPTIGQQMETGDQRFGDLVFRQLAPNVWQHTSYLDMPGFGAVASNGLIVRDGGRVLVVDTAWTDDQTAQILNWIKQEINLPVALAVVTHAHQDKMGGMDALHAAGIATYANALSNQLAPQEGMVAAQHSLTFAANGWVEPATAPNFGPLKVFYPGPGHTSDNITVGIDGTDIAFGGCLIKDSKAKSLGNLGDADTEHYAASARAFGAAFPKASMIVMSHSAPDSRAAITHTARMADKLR
Description: as §2

[2] = system: Klebsiella pneumoniae ATCC BAA-2146; experiment: Checkerboard synergy assay in combination with Meropenem; assay type: cell-based; settings: K. pneumoniae ATCC BAA-2146; for Fold reduction in meropenem MIC in the presence of compounds (μg/mL) 4: compound at 4 μg/mL; for Fold reduction in meropenem MIC in the presence of compounds (μg/mL) 8: compound at 8 μg/mL; for Fold reduction in meropenem MIC in the presence of compounds (μg/mL) 16: compound at 16 μg/mL; for Fold reduction in meropenem MIC in the presence of compounds (μg/mL) 32: compound at 32 μg/mL
Text: as §1
(§3) The fold modulation activity of test compounds, in combination with Imipenem or Meropenem, was checked against Klebsiella pneumoniae ATCC BAA-2146 strain by the broth-microdilution checkerboard synergy assay. The plates contained 5×10^5 CFU/mL bacterial inocula and 2-fold serial dilutions of the antibiotics (128-2 μg/mL) as well as test compounds (32-4 μg/mL) in a total volume of 200 μL of CA-MHB. Dimethyl sulfoxide (DMSO, ≤2.5%) was included as vehicle control. Following 16-18 h of incubation at 37° C., the MICs of antibiotics as well as drug combinations were visually inspected.

[3] = system: Klebsiella pneumoniae ATCC BAA-2146; experiment: Checkerboard synergy assay in combination with Imipenem; assay type: cell-based; settings: K. pneumoniae ATCC BAA-2146; for Fold reduction in Imipenem MIC in the presence of compounds (μg/mL) 4: compound at 4 μg/mL; for Fold reduction in Imipenem MIC in the presence of compounds (μg/mL) 8: compound at 8 μg/mL; for Fold reduction in Imipenem MIC in the presence of compounds (μg/mL) 16: compound at 16 μg/mL; for Fold reduction in Imipenem MIC in the presence of compounds (μg/mL) 32: compound at 32 μg/mL
Text: as §1, §3

| Structure (SMILES) | MIC ([1]; Imipenem series) | MIC ([1]; meropenem series) | IC50 (IMP-1) | IC50 (NDM-1) | Fold reduction in meropenem MIC in the presence of compounds (μg/mL) 4 [2] | Fold reduction in meropenem MIC in the presence of compounds (μg/mL) 8 [2] | Fold reduction in meropenem MIC in the presence of compounds (μg/mL) 16 [2] | Fold reduction in meropenem MIC in the presence of compounds (μg/mL) 32 [2] | Fold reduction in Imipenem MIC in the presence of compounds (μg/mL) 4 [3] | Fold reduction in Imipenem MIC in the presence of compounds (μg/mL) 8 [3] | Fold reduction in Imipenem MIC in the presence of compounds (μg/mL) 16 [3] | Fold reduction in Imipenem MIC in the presence of compounds (μg/mL) 32 [3] |
| --- | --- | --- | --- | --- | --- | --- | --- | --- | --- | --- | --- | --- |
| O=C(O)c1[nH]c2c(c1-c1cc(F)cc(F)c1)CCc1ccccc1-2 [Example 52, 3-(3,5-difluorophenyl)-4,5-dihydro-1H-benzo[g]indole-2-carboxylic Acid] | > 128 mg/L | > 128 mg/L | 4.87 µM | 0.158 µM |  | 2 fold | 2 fold | 4 fold | 4 fold | 4 fold | 8 fold | 8 fold |
| O=C(O)c1[nH]c2c(c1-c1cncc(F)c1)CCc1ccccc1-2 [Example 53, 3-(5-fluoropyridin-3-yl)-4,5-dihydro-1H-benzo[g]indole-2-carboxylic Acid] | > 128 mg/L | > 128 mg/L | 3.74 µM | 0.334 µM |  | 2 fold | 4 fold | 4 fold | 4 fold | 4 fold | 4 fold | 8 fold |
| O=C(O)c1[nH]c2c(c1-c1cncc(Cl)c1)CCc1ccccc1-2 [Example 54, 3-(5-chloropyridin-3-yl)-4,5-dihydro-1H-benzo[g]indole-2-carboxylic Acid] | > 128 mg/L | > 128 mg/L | 1.36 µM | 0.075 µM | 4 fold | 4 fold | 8 fold | 8 fold | 4 fold | 4 fold | 8 fold | 8 fold |
| COc1cc(F)ccc1-c1c(C(=O)O)[nH]c2c1CCc1ccccc1-2 [Example 56, 3-(4-fluoro-2-methoxyphenyl)-4,5-dihydro-1H-benzo[g]indole-2-carboxylic Acid] | > 128 mg/L | > 128 mg/L | 2.67 µM | 0.143 µM | 4 fold | 4 fold | 4 fold | 8 fold |  |  |  | 2 fold |
| COc1cc(Cl)cc(-c2c(C(=O)O)[nH]c3c2CCc2ccccc2-3)c1 [Example 59, 3-(3-chloro-5-methoxyphenyl)-4,5-dihydro-1H-benzo[g]indole-2-carboxylic Acid] | > 128 mg/L | > 128 mg/L | 0.552 µM | 0.015 µM | 4 fold | 8 fold | 8 fold | 16 fold | 4 fold | 4 fold | 8 fold | 16 fold |
| COc1cc(OC)cc(-c2c(C(=O)O)[nH]c3c2CCc2ccccc2-3)c1 [Example 61, 3-(3,5-dimethoxyphenyl)-4,5-dihydro-1H-benzo[g]indole-2-carboxylic Acid] | > 128 mg/L | > 128 mg/L | 0.495 µM | 0.049 µM | 4 fold | 4 fold | 8 fold | 8 fold | 4 fold | 8 fold | 8 fold | 8 fold |

Other lines, results leading:

| MIC ([1]; Imipenem series) | MIC ([1]; meropenem series) | IC50 (IMP-1) | IC50 (NDM-1) | Fold reduction in meropenem MIC in the presence of compounds (μg/mL) 4 [2] | Fold reduction in meropenem MIC in the presence of compounds (μg/mL) 8 [2] | Fold reduction in meropenem MIC in the presence of compounds (μg/mL) 16 [2] | Fold reduction in meropenem MIC in the presence of compounds (μg/mL) 32 [2] | Fold reduction in Imipenem MIC in the presence of compounds (μg/mL) 4 [3] | Fold reduction in Imipenem MIC in the presence of compounds (μg/mL) 8 [3] | Fold reduction in Imipenem MIC in the presence of compounds (μg/mL) 16 [3] | Fold reduction in Imipenem MIC in the presence of compounds (μg/mL) 32 [3] | Structure (SMILES) |
| --- | --- | --- | --- | --- | --- | --- | --- | --- | --- | --- | --- | --- |
| > 128 mg/L | > 128 mg/L | 3.3 µM | 0.323 µM | 2 fold | 4 fold | 4 fold | 4 fold | 2 fold | 4 fold | 4 fold | 8 fold | O=C(O)c1[nH]c2c(c1-c1cccc(F)c1F)CCc1ccccc1-2 [Example 47, 3-(2,3-difluorophenyl)-4,5-dihydro-1H-benzo[g]indole-2-carboxylic Acid] |
| > 128 mg/L | > 128 mg/L | 0.695 µM | 0.252 µM | 4 fold | 4 fold | 4 fold | 8 fold | 4 fold | 4 fold | 8 fold | 8 fold | Cc1cc(C)cc(-c2c(C(=O)O)[nH]c3c2CCc2ccccc2-3)c1 [Example 48, 3-(3,5-dimethylphenyl)-4,5-dihydro-1H-benzo[g]indole-2-carboxylic Acid] |
| > 128 mg/L | > 128 mg/L | 25 µM | 0.211 µM |  | 2 fold | 2 fold | 4 fold | 2 fold | 2 fold | 4 fold | 4 fold | O=C(O)c1[nH]c2c(c1-c1cccc(Cl)c1Cl)CCc1ccccc1-2 [Example 50, 3-(2,3-dichlorophenyl)-4,5-dihydro-1H-benzo[g]indole-2-carboxylic Acid] |
| > 128 mg/L | > 128 mg/L | 11.1 µM | 0.604 µM | 4 fold | 4 fold | 8 fold | 8 fold | 4 fold | 4 fold | 8 fold | 8 fold | O=C(O)c1[nH]c2c(c1-c1ccncc1)CCc1ccccc1-2 [Example 51, 3-(pyridin-4-yl)-4,5-dihydro-1H-benzo[g]indole-2-carboxylic Acid] |
